Key:
MYLK = MYLK (Homo sapiens, UniProt Q15746); experiment: MYLK assay (LanthaScreen Eu Kinase Binding Assay); conditions: 5 nM MYLK, 30 nM tracer 236, RT 1 h; read-out: MYLK Activites: IC50
Summary of the method: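 TR-FRET tracer-displacement binding: 5 nM MYLK with 2 nM Eu-anti-GST antibody and 30 nM tracer 236 in kinase buffer A, 1 h at RT. The 665/615 nm emission ratio was plotted against inhibitor concentration; IC50 from variable-slope sigmoidal fit.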

LRRK2 = LRRK2 (Homo sapiens, UniProt Q5S007); experiment: LRRK2 assay (LanthaScreen Eu Kinase Binding Assay); conditions: 5 nM LRRK2, 10 nM tracer 236, RT 1 h; read-out: LRRK2 Activites: IC50
Sequence of LRRK2 (Q5S007 970-2527 limits assumed): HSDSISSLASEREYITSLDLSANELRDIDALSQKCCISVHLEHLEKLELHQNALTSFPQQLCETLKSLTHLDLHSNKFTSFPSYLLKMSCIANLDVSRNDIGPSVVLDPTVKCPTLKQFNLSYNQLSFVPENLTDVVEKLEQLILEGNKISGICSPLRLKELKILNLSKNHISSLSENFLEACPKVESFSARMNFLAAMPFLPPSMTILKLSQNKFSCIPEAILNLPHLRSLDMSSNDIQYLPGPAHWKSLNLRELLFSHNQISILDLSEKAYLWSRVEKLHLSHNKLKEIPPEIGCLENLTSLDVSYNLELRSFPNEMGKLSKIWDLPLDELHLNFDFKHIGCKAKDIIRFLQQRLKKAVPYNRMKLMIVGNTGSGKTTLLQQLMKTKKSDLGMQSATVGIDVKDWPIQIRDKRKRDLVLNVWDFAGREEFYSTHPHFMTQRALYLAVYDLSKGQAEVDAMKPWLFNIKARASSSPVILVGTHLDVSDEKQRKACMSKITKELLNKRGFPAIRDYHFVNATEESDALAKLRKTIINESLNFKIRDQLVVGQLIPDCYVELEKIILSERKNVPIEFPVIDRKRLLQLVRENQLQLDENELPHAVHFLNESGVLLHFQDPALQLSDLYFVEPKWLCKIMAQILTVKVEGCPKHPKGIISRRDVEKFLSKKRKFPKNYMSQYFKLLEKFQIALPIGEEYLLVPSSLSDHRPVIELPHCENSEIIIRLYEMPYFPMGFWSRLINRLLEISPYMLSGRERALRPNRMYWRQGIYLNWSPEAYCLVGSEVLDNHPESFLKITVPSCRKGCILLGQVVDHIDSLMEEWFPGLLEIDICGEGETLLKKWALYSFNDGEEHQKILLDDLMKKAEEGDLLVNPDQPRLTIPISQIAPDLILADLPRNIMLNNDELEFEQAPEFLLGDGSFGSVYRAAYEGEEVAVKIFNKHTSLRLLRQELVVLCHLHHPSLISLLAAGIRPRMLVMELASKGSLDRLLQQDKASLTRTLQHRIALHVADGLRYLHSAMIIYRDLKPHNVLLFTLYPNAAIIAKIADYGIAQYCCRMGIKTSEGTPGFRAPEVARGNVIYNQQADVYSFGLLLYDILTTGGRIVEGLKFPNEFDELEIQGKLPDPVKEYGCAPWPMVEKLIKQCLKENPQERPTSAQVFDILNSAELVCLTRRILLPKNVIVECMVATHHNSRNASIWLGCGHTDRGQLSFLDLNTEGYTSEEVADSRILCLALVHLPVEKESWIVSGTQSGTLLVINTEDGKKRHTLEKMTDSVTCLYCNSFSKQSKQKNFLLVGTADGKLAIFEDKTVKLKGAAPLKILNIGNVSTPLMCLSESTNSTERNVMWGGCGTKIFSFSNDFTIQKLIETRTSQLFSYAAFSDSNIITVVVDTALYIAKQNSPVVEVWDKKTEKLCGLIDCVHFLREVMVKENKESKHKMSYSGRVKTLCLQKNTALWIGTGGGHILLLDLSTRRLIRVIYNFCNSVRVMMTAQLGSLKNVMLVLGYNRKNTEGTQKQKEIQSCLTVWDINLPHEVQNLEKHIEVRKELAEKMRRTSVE
Summary of the method: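 IC50 was derived from a sigmoidal dose-response fit with variable slope, plotting emission ratio against inhibitor concentration. The read-out is loss of FRET between a europium-labelled anti-tag antibody on the kinase and a tracer displaced by inhibitor.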

SYK kinase = target: T1, SYK kinase (Homo sapiens, UniProt P43405); experiment: SYK assay (OMNIA Kinase Assay, Invitrogen); format: biochemical; conditions: apparent Ki calculated from the IC50 using the Cheng-Prusoff equation; 1 mM ATP, 10 μM Peptide Substrate; read-out: SYK Activities: Ki
T1 construct: purchased Invitrogen, Carlsbad
Summary of the method: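 Reaction velocities were measured from kinetic fluorescence reads (360/485 nm, every 30 s over 30 min) of Mg2+-chelated SOX signal. Conditions were 1 mM ATP, 10 μM Omnia Tyr 7 peptide and 0.2 mM DTT at 30° C. Sigmoidal IC50 fits were converted to apparent Ki using Cheng-Prusoff.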

Sequence of MYLK (Q15746 whole entry): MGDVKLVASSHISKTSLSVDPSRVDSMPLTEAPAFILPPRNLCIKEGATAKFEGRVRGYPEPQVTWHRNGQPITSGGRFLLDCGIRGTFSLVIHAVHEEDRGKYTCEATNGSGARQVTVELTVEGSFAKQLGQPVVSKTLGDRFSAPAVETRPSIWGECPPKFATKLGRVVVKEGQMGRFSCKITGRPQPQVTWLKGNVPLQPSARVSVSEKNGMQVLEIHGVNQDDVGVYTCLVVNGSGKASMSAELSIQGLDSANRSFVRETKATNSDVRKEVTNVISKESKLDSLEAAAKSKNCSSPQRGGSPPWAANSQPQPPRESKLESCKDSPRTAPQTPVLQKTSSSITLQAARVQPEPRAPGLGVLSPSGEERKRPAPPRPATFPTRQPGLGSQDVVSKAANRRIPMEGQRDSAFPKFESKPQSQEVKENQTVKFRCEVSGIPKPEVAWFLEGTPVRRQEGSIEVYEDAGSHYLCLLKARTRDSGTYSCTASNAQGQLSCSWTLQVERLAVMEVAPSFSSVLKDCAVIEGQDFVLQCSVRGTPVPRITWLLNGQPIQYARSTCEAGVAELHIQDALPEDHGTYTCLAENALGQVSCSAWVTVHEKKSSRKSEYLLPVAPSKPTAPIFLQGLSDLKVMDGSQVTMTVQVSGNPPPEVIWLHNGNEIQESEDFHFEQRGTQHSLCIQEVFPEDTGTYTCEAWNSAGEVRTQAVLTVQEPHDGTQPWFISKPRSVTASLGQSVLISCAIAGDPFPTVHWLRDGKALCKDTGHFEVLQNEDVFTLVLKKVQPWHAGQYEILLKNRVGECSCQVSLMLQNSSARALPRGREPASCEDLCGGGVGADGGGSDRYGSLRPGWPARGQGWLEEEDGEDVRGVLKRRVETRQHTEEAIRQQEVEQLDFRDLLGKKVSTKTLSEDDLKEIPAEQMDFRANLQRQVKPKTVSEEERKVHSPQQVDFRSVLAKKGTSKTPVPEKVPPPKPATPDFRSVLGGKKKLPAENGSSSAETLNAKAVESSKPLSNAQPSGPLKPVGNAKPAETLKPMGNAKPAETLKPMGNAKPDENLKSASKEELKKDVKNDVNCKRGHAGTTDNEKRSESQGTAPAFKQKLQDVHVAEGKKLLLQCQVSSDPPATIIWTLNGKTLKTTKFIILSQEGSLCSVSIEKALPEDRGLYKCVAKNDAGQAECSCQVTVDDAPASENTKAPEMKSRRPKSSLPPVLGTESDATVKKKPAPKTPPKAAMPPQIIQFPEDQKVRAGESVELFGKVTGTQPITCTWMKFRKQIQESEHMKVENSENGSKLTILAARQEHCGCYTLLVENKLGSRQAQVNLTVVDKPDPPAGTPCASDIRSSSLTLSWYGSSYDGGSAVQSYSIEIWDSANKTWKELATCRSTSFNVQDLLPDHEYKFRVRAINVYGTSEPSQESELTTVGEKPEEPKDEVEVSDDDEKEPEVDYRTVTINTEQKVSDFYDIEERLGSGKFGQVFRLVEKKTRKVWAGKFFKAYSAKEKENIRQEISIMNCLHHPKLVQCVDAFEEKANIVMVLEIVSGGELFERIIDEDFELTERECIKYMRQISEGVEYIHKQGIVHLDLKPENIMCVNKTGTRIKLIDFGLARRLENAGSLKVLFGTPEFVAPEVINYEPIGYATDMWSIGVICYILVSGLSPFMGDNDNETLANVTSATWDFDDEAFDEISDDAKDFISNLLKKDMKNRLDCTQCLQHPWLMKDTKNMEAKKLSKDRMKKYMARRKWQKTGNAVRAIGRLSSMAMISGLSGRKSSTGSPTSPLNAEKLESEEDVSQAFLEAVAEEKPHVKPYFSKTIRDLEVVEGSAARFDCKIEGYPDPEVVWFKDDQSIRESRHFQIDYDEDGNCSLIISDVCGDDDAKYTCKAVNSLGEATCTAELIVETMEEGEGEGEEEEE

| SMILES | IC50 (MYLK) | IC50 (LRRK2) | Ki (SYK kinase) |
| --- | --- | --- | --- |
| CN(C)c1ccc(Nc2nc3ccc(Br)cc3c3c[nH]nc23)cc1 [Example #84, N-(8-Bromo-2H-pyrazolo[3,4-c]quinolin-4-yl)-N′,N′-dimethyl-benzene-1,4-diamine] | < 5000 nM | 100 to 1000 nM | 10 to 100 nM |
| COc1cc2nc(Nc3ccc(N4CCN(C)CC4)cc3)c3n[nH]cc3c2cc1OC [Example #134, (7,8-Dimethoxy-2H-pyrazolo[3,4-c]quinolin-4-yl)-[4-(4-methyl-piperazin-1-yl)-phenyl]-amine] | < 5000 nM | 100 to 1000 nM | 10 to 100 nM |
| COc1ccc2nc(Nc3cccc(NC(C)=O)c3)c3[nH]ncc3c2c1 [Example #120, N-[3-(8-Methoxy-3H-pyrazolo[3,4-c]quinolin-4-ylamino)-phenyl]-acetamide] | < 5000 nM | 10 to 100 nM | 10 to 100 nM |
| COc1ccc2nc(Nc3ccc(OC4CCN(C)CC4)cc3)c3n[nH]cc3c2c1 [Example #163, (8-Methoxy-2H-pyrazolo[3,4-c]quinolin-4-yl)-[4-(1-methyl-piperidin-4-yloxy)-phenyl]-amine] | < 5000 nM | 100 to 1000 nM | 10 to 100 nM |
| COc1cc(OC)c2nc(Nc3ccc(CN4CCN(C)CC4)cc3)c3n[nH]cc3c2c1 [Example #282, (6,8-Dimethoxy-2H-pyrazolo[3,4-c]quinolin-4-yl)-[4-(4-methyl-piperazin-1-ylmethyl)-phenyl]-amine] | < 5000 nM | 100 to 1000 nM | 10 to 100 nM |
| COc1ccc2nc(Nc3ccc4c(c3)CCCN4C)c3n[nH]cc3c2c1 [Example #308, 8-methoxy-N-(1-methyl-1,2,3,4-tetrahydroquinolin-6-yl)-2H-pyrazolo[3,4-c]quinolin-4-amine] | < 5000 nM | 100 to 1000 nM | 10 to 100 nM |
| COc1ccc2nc(Nc3ccc(CN4CCCC4)cc3)c3n[nH]cc3c2c1 [Example #234, (8-Methoxy-2H-pyrazolo[3,4-c]quinolin-4-yl)-(4-pyrrolidin-1-ylmethyl-phenyl)-amine] | < 5000 nM | 10 to 100 nM | 10 to 100 nM |
| COc1ccc2nc(Nc3cnc(N4CCN(C)CC4)nc3)c3n[nH]cc3c2c1 [Example #223, (8-Methoxy-2H-pyrazolo[3,4-c]quinolin-4-yl)-[2-(4-methyl-piperazin-1-yl)-pyrimidin-5-yl]-amine] | < 5000 nM | 100 to 1000 nM | 100 to 1000 nM |
| COc1ccc2nc(Nc3ccc(N4CCN(CC(C)C)CC4)cc3)c3n[nH]cc3c2c1 [Example #270, [4-(4-Isobutyl-piperazin-1-yl)-phenyl]-(8-methoxy-2H-pyrazolo[3,4-c]quinolin-4-yl)-amine] | < 5000 nM | 100 to 1000 nM | < 10 nM |
| COc1ccc2nc(Nc3ccc(NC(C)=O)cc3)c3n[nH]cc3c2c1 [Example #128, N-[4-(8-Methoxy-2H-pyrazolo[3,4-c]quinolin-4-ylamino)-phenyl]-acetamide] | < 5000 nM | 100 to 1000 nM | 10 to 100 nM |
| COc1ccc2nc(Nc3ccc(OC4CCN(C)CC4)nc3)c3n[nH]cc3c2c1 [Example #255, (8-Methoxy-2H-pyrazolo[3,4-c]quinolin-4-yl)-[6-(1-methyl-piperidin-4-yloxy)-pyridin-3-yl]-amine] | < 5000 nM | 100 to 1000 nM | 10 to 100 nM |
| COc1cccc2nc(Nc3cccc(S(C)(=O)=O)c3)c3[nH]ncc3c12 [Example #338, 9-methoxy-N-(3-(methylsulfonyl)phenyl)-3H-pyrazolo[3,4-c]quinolin-4-amine] | < 5000 nM | 100 to 1000 nM | 100 to 1000 nM |
| COc1ccc(Nc2nc3c(OC)cccc3c3c[nH]nc23)cc1OC [Example #167, (3,4-Dimethoxy-phenyl)-(6-methoxy-2H-pyrazolo[3,4-c]quinolin-4-yl)-amine] | < 5000 nM | 100 to 1000 nM | 10 to 100 nM |
| COc1cccc2c1nc(Nc1ccc(N3CCN(C)CC3)cc1)c1n[nH]cc12 [Example #166, (6-Methoxy-2H-pyrazolo[3,4-c]quinolin-4-yl)-[4-(4-methyl-piperazin-1-yl)-phenyl]-amine] | < 5000 nM | 100 to 1000 nM | 10 to 100 nM |
| CCN(CC)CCNC(=O)c1ccc(Nc2nc3ccc(OC)cc3c3c[nH]nc23)cc1 [Example #222, N-(2-Diethylamino-ethyl)-4-(8-methoxy-2H-pyrazolo[3,4-c]quinolin-4-ylamino)-benzamide] | < 5000 nM | 100 to 1000 nM | < 10 nM |
| COc1ccc2nc(Nc3ccc(N4CCN(CC5CC5)CC4)cc3)c3n[nH]cc3c2c1 [Example #272, [4-(4-Cyclopropylmethyl-piperazin-1-yl)-phenyl]-(8-methoxy-2H-pyrazolo[3,4-c]quinolin-4-yl)-amine] | < 5000 nM | 10 to 100 nM | < 10 nM |
| COc1cccc2c1nc(Nc1ccc3[nH]cnc3c1)c1n[nH]cc12 [Example #242, (1H-benzoimidazol-5-yl)-(6-methoxy-2H-pyrazolo[3,4-c]quinolin-4-yl)-amine] | < 5000 nM | 100 to 1000 nM | 10 to 100 nM |
| COc1ccc2nc(Nc3ccc(CN4CCN(C)CC4)cc3)c3n[nH]cc3c2c1 [Example #238, (8-Methoxy-2H-pyrazolo[3,4-c]quinolin-4-yl)-[4-(4-methyl-piperazin-1-ylmethyl)-phenyl]-amine] | < 5000 nM | 100 to 1000 nM | 10 to 100 nM |
| COc1cccc2nc(Nc3ccc4cn[nH]c4c3)c3n[nH]cc3c12 [Example #203, (1H-Indazol-6-yl)-(9-methoxy-2H-pyrazolo[3,4-c]quinolin-4-yl)-amine] | < 5000 nM | 10 to 100 nM | 10 to 100 nM |
| COc1ccc2nc(Nc3ccc(C4=NCCN4)cc3)c3n[nH]cc3c2c1 [Example #86, [4-(4,5-Dihydro-1H-imidazol-2-yl)-phenyl]-(8-methoxy-2H-pyrazolo[3,4-c]quinolin-4-yl)-amine] | < 5000 nM | 100 to 1000 nM | 10 to 100 nM |
| COc1cccc2c1nc(Nc1ccc3c(c1)NC(=O)CCC3)c1n[nH]cc12 [Example #241, 8-((6-methoxy-2H-pyrazolo[3,4-c]quinolin-4-yl)amino)-4,5-dihydro-1H-benzo[b]azepin-2(3H)-one] | < 5000 nM | 100 to 1000 nM | 10 to 100 nM |
| COc1ccc2nc(Nc3ccc(C(=O)N4CCN(C)CC4)cc3)c3n[nH]cc3c2c1 [Example #235, (4-((8-methoxy-2H-pyrazolo[3,4-c]quinolin-4-yl)amino)phenyl)(4-methylpiperazin-1-yl)methanone] | < 5000 nM | 10 to 100 nM | 10 to 100 nM |
| COc1cccc2nc(Nc3ccc(N4CCN(C)CC4)cc3)c3n[nH]cc3c12 [Example #201, (9-Methoxy-2H-pyrazolo[3,4-c]quinolin-4-yl)-[4-(4-methyl-piperazin-1-yl)-phenyl]-amine] | < 5000 nM | 100 to 1000 nM | 10 to 100 nM |
| COc1ccc2nc(Nc3ccc(N4CCN(C)CC4)cc3)c3n[nH]cc3c2c1 [Example #42, (8-Methoxy-2H-pyrazolo[3,4-c]quinolin-4-yl)-[4-(4-methyl-piperazin-1-yl)-phenyl]-amine] | < 5000 nM | 10 to 100 nM | 10 to 100 nM |
| COc1cccc2nc(Nc3ccc4c(c3)NC(=O)CC4)c3[nH]ncc3c12 [Example #339, 7-((9-methoxy-3H-pyrazolo[3,4-c]quinolin-4-yl)amino)-3,4-dihydroquinolin-2(1H)-one] | < 5000 nM | 10 to 100 nM | 10 to 100 nM |
| COc1ccc2nc(Nc3ccc(N4CCOCC4=O)cc3)c3n[nH]cc3c2c1 [Example #87, 4-[4-(8-Methoxy-2H-pyrazolo[3,4-c]quinolin-4-ylamino)-phenyl]-morpholin-3-one] | < 5000 nM | 10 to 100 nM | 100 to 1000 nM |
| COc1ccc2nc(Nc3ccc(S(N)(=O)=O)cc3)c3n[nH]cc3c2c1 [Example #132, 4-(8-Methoxy-2H-pyrazolo[3,4-c]quinolin-4-ylamino)-benzenesulfonamide] | < 5000 nM | 10 to 100 nM | 10 to 100 nM |
| COc1cccc2c1nc(Nc1ccc(N3CCOCC3)c(F)c1)c1n[nH]cc12 [Example #246, (3-Fluoro-4-morpholin-4-yl-phenyl)-(6-methoxy-2H-pyrazolo[3,4-c]quinolin-4-yl)-amine] | < 5000 nM | 100 to 1000 nM | < 10 nM |
| COc1ccc2nc(Nc3ccc(-c4nnn[nH]4)cc3)c3[nH]ncc3c2c1 [Example #98, (8-Methoxy-3H-pyrazolo[3,4-c]quinolin-4-yl)-[4-(1H-tetrazol-5-yl)-phenyl]-amine] | < 5000 nM | 100 to 1000 nM | 100 to 1000 nM |
